Measured values from patent US20230051589A1, “COMPOUNDS AND COMPOSITIONS FOR TREATING CONDITIONS ASSOCIATED WITH NLRP ACTIVITY” (Novartis AG, priority 2018, published 2023).

The compounds below were run on IL-1β production in PMA-differentiated THP-1 cells (assay: IL-1β production in PMA-differentiated THP-1 cells stimulated with gramicidin (hTHP-1 assay, 2% fetal bovine serum; Procedures 1-3)). Settings: Homo sapiens, THP-1, Table B1; hTHP-1 assay containing 2% fetal bovine serum, gramicidin stimulation, IL-1β readout; read-out: hTHP-1 IC50 (average).
Type: cell-based, human
Method in brief: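 IL-1β released into supernatants was read by HTRF after 2 h gramicidin (5 μM) challenge. Before challenge, compounds (3-fold dilutions, top 100 μM, 0.37% DMSO) were given 1 h on THP-1 cells differentiated with PMA (20 ng/ml, 16-18 h) and held in 2% FBS medium.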

Row | SMILES | IC50 [µM]
1 | CNCc1cc(F)c(S(N)(=O)=NC(=O)Nc2c3c(cc4c2CCC4)CCC3)s1 (single isomer, unassigned) [Compound 412a] | 0.04 to 0.2

Same assay, conditions: Homo sapiens, THP-1, Table B3; hTHP-1 assay containing 2% fetal bovine serum, gramicidin stimulation, IL-1β readout; read-out: hTHP-1 IC50

Row | SMILES | IC50 [µM]
2 | NS(=O)(=NC(=O)Nc1c2c(cc3c1CCC3)CCC2)c1ccc(-c2ccccc2)s1 (single isomer, unassigned) [Example 799, (R) or (S)-N′-((1,2,3,5,6,7-hexahydro-s-indacen-4-yl)carbamoyl)-5-phenylthiophene-2-sulfonimidamide] | > 30
3 | C#CCCC1(CCC(=O)N(C)Cc2ccc([S@@](N)(=O)=NC(=O)Nc3c4c(cc5c3CCC5)CCC4)cc2)N=N1 [compound 771] | 0.2 to 1
4 | NS(=O)(=NC(=O)Nc1c2c(cc3c1CCC3)CCC2)c1ccc([C@@H]2CCCN2)s1 (stereo partly drawn) [Example 730, N′-((1,2,3,5,6,7-hexahydro-s-indacen-4-yl)carbamoyl)-5-((S)-pyrrolidin-2-yl)thiophene-2-sulfonimidamide] | 0.2 to 1

Same assay, conditions: Homo sapiens, THP-1, hTHP-1 assay containing 2% fetal bovine serum, Table B2, class symbols; read-out: IC50

Row | SMILES | IC50 [µM]
5 | CN1CCCC(c2ccc(S(N)(=O)=NC(=O)Nc3c4c(cc5c3CC5)CCC4)c(F)c2)C1 (stereo not shown) [Compound 911] | 1 to 5
6 | CCn1ccc(S(N)(=O)=NC(=O)Nc2c3c(cc4c2CC4)CCC3)n1 (stereo not shown) [Compound 916] | 0.2 to 1
7 | CC(C)n1nc(S(N)(=O)=NC(=O)Nc2c3c(c(C#N)c4c2CCC4)CCC3)cc1CO (stereo not shown) [Example 442, N′-((8-cyano-1,2,3,5,6,7-hexahydro-s-indacen-4-yl)carbamoyl)-5-(hydroxymethyl)-1-isopropyl-1H-pyrazole-3-sulfonimidamide] | 0.2 to 1
8 | CN(C)CC(C)(C)c1ccc(S(N)(=O)=NC(=O)Nc2c3c(cc4c2CCC4)CCC3)cc1 (stereo not shown) [Compound 902] | 1 to 5
9 | CN(Cc1ccc(S(N)(=O)=NC(=O)Nc2c3c(cc4c2CCC4)CCC3)cc1)CC(F)F (single isomer, unassigned) [Example 610, (R) or (S)-4-(((2,2-difluoroethyl) (methyl)amino)methyl)-N′-((1,2,3,5,6,7-hexahydro-s-indacen-4-yl)carbamoyl) benzenesulfonimidamide] | 1 to 5
10 | CC(C)(O)c1csc(S(N)(=O)=NC(=O)Nc2c3c(cc4c2CCC4=O)CCC3)c1 (stereo not shown) [Example 434, 4-(2-Hydroxypropan-2-yl)-N′-((1-oxo-1,2,3,5,6,7-hexahydro-s-indacen-4-yl)carbamoyl)thiophene-2-sulfonimidamide] | 0.2 to 1
11 | CC(=O)NC[C@@](C)(O)c1ncc(S(N)(=O)=NC(=O)Nc2c3c(cc4c2CCC4)CCC3)s1 (stereo partly drawn) [Example 675, N-((2R)-2-(5-(N′-((1,2,3,5,6,7-hexahydro-s-indacen-4-yl)carbamoyl)sulfamidimidoyl)thiazol-2-yl)-2-hydroxypropyl)acetamide] | 0.04 to 0.2

The remaining lines, values ahead:

Row | IC50 [µM] | SMILES
12 | 5 to 30 | COc1ccc([C@@H](C)NS(=O)(=NC(=O)Nc2c3c(cc4c2CCC4)CCC3)c2cnc(C(C)(C)O)s2)cc1 (stereo partly drawn) [Example 712, N′-((1,2,3,5,6,7-hexahydro-s-indacen-4-yl)carbamoyl)-2-(2-hydroxypropan-2-yl)-N-((R)-1-(4-methoxyphenyl)ethyl)thiazole-5-sulfonimidamide]
13 | 0.2 to 1 | CN(Cc1ccc([S@](N)(=O)=NC(=O)Nc2c3c(cc4c2CCC4)CCC3)cc1)C1CCC1 [Example 709, (R)-4-((cyclobutyl(methyl)amino)methyl)-N′-((1,2,3,5,6,7-hexahydro-s-indacen-4-yl)-carbamoyl)benzenesulfonimidamide]

Same assay, conditions: Homo sapiens, THP-1, hTHP-1 assay containing 2% fetal bovine serum, Table B2, given as bound; read-out: IC50

Row | SMILES | IC50 [µM]
14 | NS(=O)(=NC(=O)Nc1c2c(cc3c1CCC3)CCC2)c1ccc(CN2CCC(F)(F)C2)cc1 (single isomer, unassigned) [Example 621, (S) or (R)-4-((3,3-difluoropymolidin-1-yl)methyl)-N′-((1,2,3,5,6,7-hexahydro-s-indacen-4-yl)carbamoyl) benzenesulfonimidamide] | > 30
15 | CC(C)(O)c1cnc([S@@](N)(=O)=NC(=O)Nc2c3c(cc4c2C(O)CC4)CCC3)s1 (stereo partly drawn) [Example 511, (S)-N′-((3-hydroxy-1,2,3,5,6,7-hexahydro-s-indacen-4-yl)carbamoyl)-5-(2-hydroxypropan-2-yl)thiazole-2-sulfonimidamide] | > 30

Same assay, conditions: Table B1; hTHP-1 assay containing 2% fetal bovine serum, gramicidin stimulation, IL-1β readout; read-out: hTHP-1 IC50 (average)

Row | SMILES | IC50 [µM]
16 | CC(C)(O)c1ncc(S(N)(=O)=NC(=O)Nc2c3c(cc4c2CCC4)CCC3)s1 (single isomer, unassigned) [Example 5] | 0.2 to 1
17 | CC(C)(O)c1ccc(S(N)(=O)=NC(=O)Nc2c3c(cc4c2CCC4)CCC3)c(F)c1 (single isomer, unassigned) [Example 87] | 0.04 to 0.2

Same assay, conditions: Table B3; hTHP-1 assay containing 2% fetal bovine serum, gramicidin stimulation, IL-1β readout; read-out: hTHP-1 IC50

Row | SMILES | IC50 [µM]
18 | CNC(c1ccc(S(N)(=O)=NC(=O)Nc2c3c(cc4c2CC4)CCC3)s1)C1CC1 (single isomer, unassigned) [Example 720, 5-((S) or (R)-cyclopropyl(methylamino)methyl)-N′-((2,4,5,6-tetrahydro-1H-cyclobuta[f]inden-3-yl)carbamoyl)thiophene-2-sulfonimidamide] | 0.008 to 0.04
19 | CN(Cc1ccc(S(N)(=O)=NC(=O)Nc2c3c(cc4c2CC4)CCC3)c(F)c1)C1CCC1 (single isomer, unassigned) [Example 797, (R) or (S)-4-((cyclobutyl(methyl)amino)methyl)-2-fluoro-N′-((2,4,5,6-tetrahydro-1H-cyclobuta[f]inden-3-yl)carbamoyl)benzenesulfonimidamide] | 0.2 to 1
20 | NS(=O)(=NC(=O)Nc1c2c(cc3c1CCC3)CCC2)c1ccc([C@H]2CCCN2)s1 (single isomer, unassigned) [Example 823, (R) or (S) -N′-((1,2,3,5,6,7-hexahydro-s-indacen-4-yl)carbamoyl)-5-((R)-pyriolidin-2-yl)thiophene-2-sulfonimidamide] | 0.2 to 1
21 | NS(=O)(=NC(=O)Nc1c2c(cc3c1CCC3)CCC2)c1ccc([C@@H]2CCCN2)s1 (single isomer, unassigned) [Example 821, (R) or (S) -N′-((1,2,3,5,6,7-hexahydro-s-indacen-4-yl)carbamoyl)-5-((S)-pyrrolidin-2-yl)thiophene-2-sulfonimidamide] | 0.2 to 1
22 | CC(C)(O)c1ccnc(S(N)(=O)=NC(=O)Nc2c3c(c(C#N)c4c2CCC4)CCC3)c1 (single isomer, unassigned) [Example 828, (S) or (R)-N′-((8-cyano-1,2,3,5,6,7-hexahydro-s-indacen-4-yl)carbamoyl)-4-(2-hydroxypropan-2-yl)pyridine-2-sulfonimidamide] | 1 to 5
23 | NS(=O)(=NC(=O)Nc1c2c(cc3c1CCC3)CCC2)c1sc(CNC2CCC2)cc1F (single isomer, unassigned) [Example 796, (S) or (R)-5-((cyclobutylamino)methyl)-3-fluoro-N′-((1,2,3,5,6,7-hexahydro-s-indacen-4-yl)carbamoyl)thiophene-2-sulfonimidamide] | 5 to 30
24 | NS(=O)(=NC(=O)Nc1c2c(cc3c1CCC3)CCC2)c1ccc(C2CCN2)cc1 (single isomer, unassigned) [Example 865, (S, S) or (R, S)-4-(azetidin-2-yl)-N′-((1,2,3,5,6,7-hexahydro-s-indacen-4-yl)carbamoyl)benzenesulfonimidamide] | 5 to 30
25 | NS(=O)(=NC(=O)Nc1c2c(cc3c1CCC3)CCC2)c1ccc([C@@H]2CCCN2)s1 (single isomer, unassigned) [Example 822, (S) or (R) -N′-((1,2,3,5,6,7-hexahydro-s-indacen-4-yl)carbamoyl)-5-((S)-pyrrolidin-2-yl)thiophene-2-sulfonimidamide] | 1 to 5
26 | CN[C@H](c1ccc(S(N)(=O)=NC(=O)Nc2c3c(cc4c2CC4)CCC3)s1)C1CC1 (single isomer, unassigned) [Example 867, (S, S) or (R, S)-5-(cyclopropyl(methylamino)methyl)-N′-((2,4,5,6-tetrahydro-1H-cyclobuta[f]inden-3-yl)carbamoyl)thiophene-2-sulfonimidamide] | 1 to 5

Same assay, conditions: hTHP-1 assay containing 2% fetal bovine serum, Table B2, class symbols; read-out: IC50

Row | SMILES | IC50 [µM]
27 | CN(C)C(c1ccc(S(N)(=O)=NC(=O)Nc2c3c(cc4c2CCC4)CCC3)cc1)C(F)F (single isomer, unassigned) [Example 647, (S,R) or (R,R)-4-(1-(dimethylamino)-2,2-difluoroethyl)-N′-((1,2,3,5,6,7-hexahydro-s-indacen-4-yl)carbamoyl) benzenesulfonimidamide] | 0.2 to 1
28 | CNC(C)(C)c1ccc(S(N)(=O)=NC(=O)Nc2c3c(cc4c2CCC4)CCC3)c(F)c1 (single isomer, unassigned) [Example 593, (R) or (S)-2-fluoro-N′-((1,2,3,5,6,7-hexahydro-s-indacen-4-yl)carbamoyl)-4-(2-(methylamino)propan-2-yl) benzenesulfonimidamide] | 0.2 to 1
29 | CC(C)(O)c1cnc(S(N)(=O)=NC(=O)Nc2c3c(cc4c2C(O)CC4)CCC3)s1 (single isomer, unassigned) [Example 653, (S,S) or (S,R)-N′-((3-hydroxy-1,2,3,5,6,7-hexahydro-s-indacen-4-yl)carbamoyl)-5-(2-hydroxypropan-2-yl)thiazole-2-sulfonimidamide] | 5 to 30
30 | Cc1c(C2CC2)cc2c(c1NC(=O)N=[S@@](N)(=O)c1cc(C(C)(C)O)cs1)CCC2 (single isomer, unassigned) [Example 498, (R) or (S)-N′-((6-cyclopropyl-5-methyl-2,3-dihydro-1H-inden-4-yl)carbamoyl)-4-(2-hydroxyprepan-2-yl)thiophene-2-sulfonimidamide] | 0.008 to 0.04
31 | CC(C)(O)c1ccnc(S(N)(=O)=NC(=O)Nc2c3c(c(C#N)c4c2CCC4)CCC3)c1 (stereo not shown) [Example 456, N′-((8-cyano-1,2,3,5,6,7-hexahydro-s-indacen-4-yl)carbamoyl)-4-(2-hydroxypropan-2-yl)pyridine-2-sulfonimidamide] | 0.2 to 1
